Reference: patent publication US12605471B2 (The General Hospital Corporation, priority 2013, dated 2026)

Experiments:
[1] = test system: Aβ fibril; conditions: cited from earlier work
[2] = Biodistribution of F-18 cromolyn in normal mice after intravenous injection; assay type: in vivo; conditions: for Tissue Distribution, blood / Tissue Distribution, brain / Tissue Distribution, heart / Tissue Distribution, liver / Tissue Distribution, lung: normal mice, i.v. tail vein
Method: At 5 min, organ activity (DPG) was: heart: 1.09%, blood: 3.3%, lung: 1.90%, liver: 7.69%, and brain: 0.15%. […] The data is provided in Table 1 below and in bar graph format in FIG. 4.

[3] = as above; assay type: in vivo; conditions: i.v. tail vein
[4] = Brain concentration of PIB analog TS3124; conditions: in vivo
[5] = biological target: Aβ (1-40) peptides (Homo sapiens, UniProt P05067); experiment: UV aggregation assay; assay type: biochemical
Sequence of Aβ (1-40) peptides (P05067 672-711 limits assumed): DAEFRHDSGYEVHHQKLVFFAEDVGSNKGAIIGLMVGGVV
Method: Aβ peptide aggregation and the impact of drugs to slow or prevent Aβ aggregation was measured by a UV absorbance assay (Findeis, 1999). Aβ (1-40) peptides, at 50 μM, were mixed with 50 μM drug in assay buffer and the plate was incubated at ambient temperature on a plate reader. The UV absorbance was monitored at 540 nm over a 2-3 h period.
Polymerization of Aβ-monomer peptides into clusters of trimers and tetramers initiates the Aβ aggregation process into protofibrils and then into fibrils that form amyloid plaques.

[6] = biological target: Aβ peptide (Homo sapiens, UniProt P05067); experiment: Aβ aggregation by thioflavin T assay; assay type: biochemical
Sequence of Aβ peptide (P05067 672-711 limits assumed): as above
Method: One of the most routinely used approaches to monitor Aβ polymerization is the thioflavin T binding assay. […] Aβ peptide at 5 μM was mixed with 10 μM thioflavin T with drug at different concentrations.

[7] = human, oral inhalation, high inspiratory rates; cited from earlier work
[8] = test system: atherosclerotic plaque; conditions: mice; cited from earlier work
[9] = test system: interleukin-6 (IL-6); conditions: mice, stress-related coronary inflammation; cited from earlier work

Q: For `O=c1c(O)c(-c2ccc(O)c(O)c2)oc2ccccc12` [3,3′,4′-Trihydroxyflavone], which “Effects on Aβ fibril formation” value [1] is on record?
A: Inhibitory

Q: With `O=c1c(O)c(-c2cccc(O)c2)oc2cc(O)ccc12` [3,3′,7-Trihydroxyflavone] as the molecule, how does the “Effects on Aβ fibril formation” value [1] read?
A: Enhancing

Q: Which “Effects on Aβ fibril formation” value [1] does the source give for `O=c1cc(-c2ccc(O)c(O)c2)oc2cc(O)ccc12` [3′,4′,7-Trihydroxyflavone] here?
A: Inhibitory

Q: For `O=c1c(O)c(-c2ccc(O)cc2)oc2cc(O)ccc12` [5-Deoxykaempferol], which “Effects on Aβ fibril formation” value [1] is on record?
A: Enhancing

Q: For `O=c1cc(-c2ccccc2)oc2cc(O)cc(O)c12` [Chrysin], which “Effects on Aβ fibril formation” value [1] is on record?
A: Enhancing

Q: Which results are given for `O=C(O)c1cc(=O)c2c(OCC([18F])COc3cccc4oc(C(=O)O)cc(=O)c34)cccc2o1` [F-18 Cromolyn, 5,5′-(2-[18F]fluoropropane-1,3-diyl)bis(oxy)bis(4-oxo-4H-chromene-2-carboxylic acid)]?
A: brain uptake (accumulation) ([2]; mice, intravenous injection, 5, 30 or 60 minute, little or no washout, FIG. 4): 1%; Tissue Distribution, blood ([2]; 5 min): 3.31 ± 1.37 % Dose/gram; Tissue Distribution, brain ([2]; 5 min): 0.15 ± 0.37 % Dose/gram; Tissue Distribution, heart ([2]; 5 min): 1.09 ± 0.13 % Dose/gram; Tissue Distribution, liver ([2]; 5 min): 7.69 ± 0.41 % Dose/gram; Tissue Distribution, lung ([2]; 5 min): 1.90 ± 1.04 % Dose/gram; Tissue Distribution, blood ([2]; 5 min, listed as F-18 cromolyn): 3.3 % Dose/gram; Tissue Distribution, brain ([2]; 5 min, listed as F-18 cromolyn): 0.15 % Dose/gram; Tissue Distribution, heart ([2]; 5 min, listed as F-18 cromolyn): 1.09 % Dose/gram; Tissue Distribution, liver ([2]; 5 min, listed as F-18 cromolyn): 7.69 % Dose/gram; Tissue Distribution, lung ([2]; 5 min, listed as F-18 cromolyn): 1.90 % Dose/gram; Tissue Distribution, blood ([2]; 30 min): 0.92 ± 0.20 % Dose/gram; Tissue Distribution, brain ([2]; 30 min): 0.04 ± 0.007 % Dose/gram; Tissue Distribution, heart ([2]; 30 min): 0.32 ± 0.03 % Dose/gram; Tissue Distribution, blood ([2]; 60 min): 0.44 ± 0.15 % Dose/gram; Tissue Distribution, heart ([2]; 60 min): 0.18 ± 0.07 % Dose/gram; Tissue Distribution, liver ([2]; 60 min): 1.76 ± 0.74 % Dose/gram; Tissue Distribution, liver ([3]; 30 min): 3.11 ± 0.36 % Dose/gram; Tissue Distribution, lung ([3]; 30 min): 0.62 ± 0.19 % Dose/gram; Tissue Distribution, brain ([3]; 60 min): 0.03 ± 0.004 % Dose/gram; Tissue Distribution, heart ([3]; 60 min): 0.18 % Dose/gram; Tissue Distribution, lung ([3]; 60 min): 0.29 ± 0.21 % Dose/gram

Q: For `O=c1c(O)c(-c2ccc(O)cc2)oc2cc(O)cc(O)c12` [Kaempferol], which “Effects on Aβ fibril formation” value [1] is on record?
A: Enhancing

Q: Which “Effects on Aβ fibril formation” value [1] does the source give for `O=c1cc(-c2ccc(O)c(O)c2)oc2cc(O)cc(O)c12` [Luteolin] here?
A: Inhibitory

Q: With `O=c1c(O)c(-c2cc(O)c(O)c(O)c2)oc2cc(O)cc(O)c12` [Myricetin] as the molecule, how does the “Effects on Aβ fibril formation” value [1] read?
A: Inhibitory

Q: For `O=c1c(O)c(-c2ccc(O)c(O)c2)oc2cc(O)cc(O)c12` [Quercetin], which “Effects on Aβ fibril formation” value [1] is on record?
A: Inhibitory

Q: With `CC(F)CNc1ccc(-c2nc3ccc(O)cc3s2)cc1` (stereo not shown) [TS3124] as the molecule, how does the brain concentration [4] read?
A: 4%

Q: With `O=C([O-])c1cc(=O)c2c(OCC(O)COc3cccc4oc(C(=O)[O-])cc(=O)c34)cccc2o1.[Na+].[Na+]` [cromolyn sodium, Disodium cromoglicate] as the molecule, how does the “incubation time required for 50% polymerization” value ([5]; Aβ 50 μM, equimolar drug, 14 minutes in the absence of drug) read?
A: 75 min

Q: And the “inhibition of the rate of Aβ polymerization” value ([5]; equimolar concentrations with Aβ)?
A: 7 fold

Q: What about the “Aβ aggregation (thioflavin T fluorescence)” value ([6]; Aβ peptide 5 μM, 10 μM thioflavin T, drug at nanomolar concentration, FIG. 6) of the same molecule?
A: inhibition of Aβ aggregation

Q: What about the “Aβ amyloid peptide polymerization into oligomers and higher order aggregates” value ([6]; four separate in vitro assays, nanomolar concentrations) of the same molecule?
A: effectively inhibits

Q: And the “inhaled drug-delivered-dose absorbed into the bloodstream” value [7]?
A: 10-15%

Q: What about the dinitrophenyl-albumin-induced plaque expansion [8] of the same molecule?
A: prevented

Q: What about the “release of interleukin-6 (IL-6)” value [9] of the same molecule?
A: partially inhibited

Q: With Fisetin as the molecule, how does the “Effects on Aβ fibril formation” value [1] read?
A: Inhibitory
